Assay results as given in the supplement of paper PMC10307832.

What was measured:
Test in all cases: relative viability (nuclei count vs DMSO), 5 days (fraction); higher = more cells survive
Motesanib + Decitabine = compound: CC1(C)CNc2cc(NC(=O)c3cccnc3NCc3ccncc3)ccc21 [Motesanib] + Nc1ncn([C@H]2C[C@H](O)[C@@H](CO)O2)c(=O)n1 [Decitabine] (partner 2 µM)
How it was run: (§1)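 Cells from lung cancer lines were seeded into 1536-well plates and, one day later, dosed by pin tool. Treatments were either a single drug or a fixed dose of an anchor drug with five library-drug doses (not always all listed) in √10 steps. After 5 days, nuclei were stained in a one-step fixation (final 0.05% Triton X-100, 1% formaldehyde, 1 ug/ml Hoechst) and counted on 4× images, and relative viability is the treated-to-vehicle nuclei ratio, as the median of duplicate plates.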

[1] = compound: C[C@@]1(C(=O)Nc2ccc(F)nc2)CCCN1c1nc(Nc2cc(C3CC3)n[nH]2)c2cccn2n1 + COc1cccc2cc(-c3nc([C@H]4CC[C@H](C(=O)O)CC4)n4ncnc(N)c34)[nH]c12 [OSI-027] (partner 0.5 µM)
How it was run: as §1

Motesanib + OSI-027 = compound: CC1(C)CNc2cc(NC(=O)c3cccnc3NCc3ccncc3)ccc21 [Motesanib] + COc1cccc2cc(-c3nc([C@H]4CC[C@H](C(=O)O)CC4)n4ncnc(N)c34)[nH]c12 [OSI-027] (partner 0.5 µM)
How it was run: as §1

Motesanib + Crizotinib = compound: CC1(C)CNc2cc(NC(=O)c3cccnc3NCc3ccncc3)ccc21 [Motesanib] + C[C@@H](Oc1cc(-c2cnn(C3CCNCC3)c2)cnc1N)c1c(Cl)ccc(F)c1Cl [Crizotinib] (partner 1 µM)
How it was run: as §1

Cell Line	relative viability (Motesanib + Decitabine; first compound 0.01 µM)	relative viability (Motesanib + Decitabine; first compound 0.03162 µM)	relative viability (Motesanib + Decitabine; first compound 0.1 µM)	relative viability (Motesanib + Decitabine; first compound 0.3162 µM)	relative viability (Motesanib + Decitabine; first compound 1 µM)	relative viability ([1]; first compound 0.04 µM)	relative viability ([1]; first compound 0.1265 µM)	relative viability ([1]; first compound 0.4 µM)	relative viability ([1]; first compound 1.265 µM)	relative viability (Motesanib + OSI-027; first compound 0.01 µM)	relative viability (Motesanib + OSI-027; first compound 0.03162 µM)	relative viability (Motesanib + OSI-027; first compound 0.1 µM)	relative viability (Motesanib + OSI-027; first compound 0.3162 µM)	relative viability (Motesanib + OSI-027; first compound 1 µM)	relative viability (Motesanib + Crizotinib; first compound 0.01 µM)	relative viability (Motesanib + Crizotinib; first compound 0.03162 µM)	relative viability (Motesanib + Crizotinib; first compound 0.1 µM)	relative viability (Motesanib + Crizotinib; first compound 0.3162 µM)	relative viability (Motesanib + Crizotinib; first compound 1 µM)
LXF-289	0.406	0.427	0.617	0.651	0.688	0.633	0.463	0.407	0.353	0.708	0.841	0.857	0.912	0.886	0.822	0.823	0.82	0.842	0.867
PC-14	0.243	0.174	0.275	0.257	0.231	0.869	0.284	0.563	0.279	0.868	1.01	0.704	0.844	0.849	0.944	0.965	0.898	0.883	0.969
NCI-H650	0.31	0.319	0.312	0.382	0.529	0.459	0.214	0.306	0.289	0.529	–	0.539	0.574	0.537	0.774	0.685	0.874	0.71	0.522
NCI-H1666	0.67	0.748	0.885	0.762	0.813	0.611	0.488	0.568	0.426	0.784	0.816	0.894	0.937	0.859	1.02	1.06	0.949	0.958	1.03
NCI-H2085	0.551	0.684	0.702	0.644	0.71	0.788	0.679	0.599	0.535	0.812	0.892	0.753	0.67	0.691	0.924	0.846	1.05	0.807	0.756
NCI-H1734	0.51	0.675	0.695	0.613	0.869	0.42	0.29	0.268	0.293	0.659	0.602	–	0.58	0.527	0.685	0.645	0.654	0.68	0.673
NCI-H2126	0.608	0.645	0.625	0.698	0.709	0.469	0.311	0.256	0.344	0.815	0.737	0.674	0.774	0.781	1.07	1	0.999	1.03	1.09
EMC-BAC-2	0.956	0.979	1.01	0.984	1.04	0.299	0.274	0.241	0.251	0.398	0.341	0.36	0.412	0.378	0.761	0.656	0.765	0.739	0.674
